In patent publication US11274268B2, “Detergent compositions for removing heavy metals and formaldehyde” (FNG RESEARCH CO., LTD., priority 2017, dated 2022):

Experiments:
[1] = Formaldehyde removing ability test (GC); conditions: 2.0% formaldehyde solution, 3 molar equivalents, room temperature
human skin = assay: Skin irritation test of active ingredient (patch method, CTFA guidelines); type: in vivo; conditions: for Test result (number of subject) (+) / Test result (number of subject) (−) / Test result (number of subject) (++) / Test result (number of subject) (±): 20 subjects, 24 hours patch; for Test result (number of subject) (+): apparent reddening; for Test result (number of subject) (−): no erythema or symptoms; for Test result (number of subject) (++): reddened and swollen; for Test result (number of subject) (±): slightly reddish; for Degree of irritation: Equation 1
Protocol: A total of 20 people (10 men and 10 women in their 20s and 30s) were tested for skin irritation using the patch method according to the guidelines of CTFA (The Cosmetic, Toiletry & Fragrance Association, Inc. Washington, D.C.).
A filter paper disk was placed in an 8 mm diameter, 10 panels of pin chamber.
After 24 hours, the pin chamber was removed, and skin conditions were visually observed. The degree and grade for skin irritation were calculated according to the following Equation 1, and the results are shown in Table 3 below.
[Criteria for Skin Irritation]
(−): No erythema or particularly no symptoms; (±): slightly reddish than the periphery; (+): Apparent reddening than periphery; (++): More reddened and swollen than periphery.
[Grade for Skin Irritation]
Degree of irritation 0-0.1: Grade I (unstimulated);
Degree of irritation 0.11-0.3: Grade II (weakly stimulated);
Degree of irritation 0.31-0.5: Grade III (moderately stimulated);
Degree of irritation 0.51 or more: Grade IV (strongly stimulated)

O=C(O)c1cncc(N2CCN(c3cncc(C(=O)O)c3)CCN(c3cncc(C(=O)O)c3)CCN(c3cncc(C(=O)O)c3)CC2)c1 [Embodiment 7, 5,5′,5″,5′″-(1,4,7,10-tetraazacyclododecane-1,4,7,10-tetrayl)tetranicotinic Acid]
Area (formaldehyde, GC) ([1]; 30 min): 0.181 mAU * min | Area (formaldehyde, GC) ([1]; 180 min): 0 mAU * min | Area (formaldehyde, GC) ([1]; Initial): 0.305 mAU * min | Grade (human skin; content 0.1%): I (Degree of irritation 0-0.1: Grade I (unstimulated)) | Test result (number of subject) (+) (human skin; content 0.1%): 0 | Test result (number of subject) (−) (human skin; content 0.1%): 20 | Test result (number of subject) (++) (human skin; content 0.1%): 0 | Test result (number of subject) (±) (human skin; content 0.1%): 0 | Degree of irritation (human skin; content 0.1%): 0 | Grade (human skin; content 0.5%): I (Degree of irritation 0-0.1: Grade I (unstimulated)) | Test result (number of subject) (+) (human skin; content 0.5%): 0 | Test result (number of subject) (−) (human skin; content 0.5%): 20 | Test result (number of subject) (++) (human skin; content 0.5%): 0 | Test result (number of subject) (±) (human skin; content 0.5%): 0 | Degree of irritation (human skin; content 0.5%): 0 | Grade (human skin; content 1.0%): I (Degree of irritation 0-0.1: Grade I (unstimulated)) | Test result (number of subject) (+) (human skin; content 1.0%): 0 | Test result (number of subject) (−) (human skin; content 1.0%): 20 | Test result (number of subject) (++) (human skin; content 1.0%): 0 | Test result (number of subject) (±) (human skin; content 1.0%): 0 | Degree of irritation (human skin; content 1.0%): 0

O=C(O)c1ccc(N2CCN(c3ccc(C(=O)O)o3)CCN(c3ccc(C(=O)O)o3)CCN(c3ccc(C(=O)O)o3)CC2)o1 [Embodiment 8, 5,5′,5″,5′″-(1,4,7,10-tetraazacyclododecane-1,4,7,10-tetrayl)tetrakis(furan-2-carboxylic Acid)]
Area (formaldehyde, GC) ([1]; 30 min): 0.168 mAU * min | Area (formaldehyde, GC) ([1]; 180 min): 0 mAU * min | Area (formaldehyde, GC) ([1]; Initial): 0.305 mAU * min | Grade (human skin; content 0.1%): I (Degree of irritation 0-0.1: Grade I (unstimulated)) | Test result (number of subject) (+) (human skin; content 0.1%): 0 | Test result (number of subject) (−) (human skin; content 0.1%): 20 | Test result (number of subject) (++) (human skin; content 0.1%): 0 | Test result (number of subject) (±) (human skin; content 0.1%): 0 | Degree of irritation (human skin; content 0.1%): 0 | Grade (human skin; content 0.5%): I (Degree of irritation 0-0.1: Grade I (unstimulated)) | Test result (number of subject) (+) (human skin; content 0.5%): 0 | Test result (number of subject) (−) (human skin; content 0.5%): 20 | Test result (number of subject) (++) (human skin; content 0.5%): 0 | Test result (number of subject) (±) (human skin; content 0.5%): 0 | Degree of irritation (human skin; content 0.5%): 0 | Grade (human skin; content 1.0%): I (Degree of irritation 0-0.1: Grade I (unstimulated)) | Test result (number of subject) (+) (human skin; content 1.0%): 0 | Test result (number of subject) (−) (human skin; content 1.0%): 18 | Test result (number of subject) (++) (human skin; content 1.0%): 0 | Test result (number of subject) (±) (human skin; content 1.0%): 2 | Degree of irritation (human skin; content 1.0%): 0.10

O=C(O)CN1CCCN(CC(=O)O)CCN(CC(=O)O)CCCN(CC(=O)O)CC1 [Embodiment 9, 2,2′,2″,2′″-(1,4,8,11-tetraazacyclotetradecane-1,4,8,11-tetrayl)tetraacetic Acid]
Area (formaldehyde, GC) ([1]; 30 min): 0.182 mAU * min | Area (formaldehyde, GC) ([1]; 180 min): 0 mAU * min | Area (formaldehyde, GC) ([1]; Initial): 0.305 mAU * min | Grade (human skin; content 0.1%): I (Degree of irritation 0-0.1: Grade I (unstimulated)) | Test result (number of subject) (+) (human skin; content 0.1%): 0 | Test result (number of subject) (−) (human skin; content 0.1%): 20 | Test result (number of subject) (++) (human skin; content 0.1%): 0 | Test result (number of subject) (±) (human skin; content 0.1%): 0 | Degree of irritation (human skin; content 0.1%): 0 | Grade (human skin; content 0.5%): I (Degree of irritation 0-0.1: Grade I (unstimulated)) | Test result (number of subject) (+) (human skin; content 0.5%): 0 | Test result (number of subject) (−) (human skin; content 0.5%): 20 | Test result (number of subject) (++) (human skin; content 0.5%): 0 | Test result (number of subject) (±) (human skin; content 0.5%): 0 | Degree of irritation (human skin; content 0.5%): 0 | Grade (human skin; content 1.0%): I (Degree of irritation 0-0.1: Grade I (unstimulated)) | Test result (number of subject) (+) (human skin; content 1.0%): 0 | Test result (number of subject) (−) (human skin; content 1.0%): 18 | Test result (number of subject) (++) (human skin; content 1.0%): 0 | Test result (number of subject) (±) (human skin; content 1.0%): 2 | Degree of irritation (human skin; content 1.0%): 0.10

O=C(O)c1ccc(N2CCCN(c3ccc(C(=O)O)cc3)CCN(c3ccc(C(=O)O)cc3)CCCN(c3ccc(C(=O)O)cc3)CC2)cc1 [Embodiment 10, 4,4′,4″,4′-(1,4,8,11-tetraazacyclotetradecane-1,4,8,11-tetrayl)tetrabenzoic Acid]
Area (formaldehyde, GC) ([1]; 30 min): 0.171 mAU * min | Area (formaldehyde, GC) ([1]; 180 min): 0 mAU * min | Area (formaldehyde, GC) ([1]; Initial): 0.305 mAU * min | Grade (human skin; content 0.1%): I (Degree of irritation 0-0.1: Grade I (unstimulated)) | Test result (number of subject) (+) (human skin; content 0.1%): 0 | Test result (number of subject) (−) (human skin; content 0.1%): 20 | Test result (number of subject) (++) (human skin; content 0.1%): 0 | Test result (number of subject) (±) (human skin; content 0.1%): 0 | Degree of irritation (human skin; content 0.1%): 0 | Grade (human skin; content 0.5%): I (Degree of irritation 0-0.1: Grade I (unstimulated)) | Test result (number of subject) (+) (human skin; content 0.5%): 0 | Test result (number of subject) (−) (human skin; content 0.5%): 20 | Test result (number of subject) (++) (human skin; content 0.5%): 0 | Test result (number of subject) (±) (human skin; content 0.5%): 0 | Degree of irritation (human skin; content 0.5%): 0 | Grade (human skin; content 1.0%): I (Degree of irritation 0-0.1: Grade I (unstimulated)) | Test result (number of subject) (+) (human skin; content 1.0%): 0 | Test result (number of subject) (−) (human skin; content 1.0%): 19 | Test result (number of subject) (++) (human skin; content 1.0%): 0 | Test result (number of subject) (±) (human skin; content 1.0%): 1 | Degree of irritation (human skin; content 1.0%): 0.05

O=C(O)c1cncc(N2CCCN(c3cncc(C(=O)O)c3)CCN(c3cncc(C(=O)O)c3)CCCN(c3cncc(C(=O)O)c3)CC2)c1 [Embodiment 11, 5,5′,5″,5′″-(1,4,8,11-tetraazacyclotetradecane-1,4,8,11-tetrayl)tetranicotinic Acid]
Area (formaldehyde, GC) ([1]; 30 min): 0.174 mAU * min | Area (formaldehyde, GC) ([1]; 180 min): 0 mAU * min | Area (formaldehyde, GC) ([1]; Initial): 0.305 mAU * min | Grade (human skin; content 0.1%): I (Degree of irritation 0-0.1: Grade I (unstimulated)) | Test result (number of subject) (+) (human skin; content 0.1%): 0 | Test result (number of subject) (−) (human skin; content 0.1%): 20 | Test result (number of subject) (++) (human skin; content 0.1%): 0 | Test result (number of subject) (±) (human skin; content 0.1%): 0 | Degree of irritation (human skin; content 0.1%): 0 | Grade (human skin; content 0.5%): I (Degree of irritation 0-0.1: Grade I (unstimulated)) | Test result (number of subject) (+) (human skin; content 0.5%): 0 | Test result (number of subject) (−) (human skin; content 0.5%): 20 | Test result (number of subject) (++) (human skin; content 0.5%): 0 | Test result (number of subject) (±) (human skin; content 0.5%): 0 | Degree of irritation (human skin; content 0.5%): 0 | Grade (human skin; content 1.0%): I (Degree of irritation 0-0.1: Grade I (unstimulated)) | Test result (number of subject) (+) (human skin; content 1.0%): 0 | Test result (number of subject) (−) (human skin; content 1.0%): 18 | Test result (number of subject) (++) (human skin; content 1.0%): 0 | Test result (number of subject) (±) (human skin; content 1.0%): 2 | Degree of irritation (human skin; content 1.0%): 0.10

O=C(O)c1ccc(N2CCCN(c3ccc(C(=O)O)o3)CCN(c3ccc(C(=O)O)o3)CCCN(c3ccc(C(=O)O)o3)CC2)o1 [Embodiment 12, 5,5′,5″,5′″-(1,4,8,11-tetraazacyclotetradecane-1,4,8,1-tetrayl)tetrakis(furan-2-carboxylic Acid)]
Area (formaldehyde, GC) ([1]; 30 min): 0.170 mAU * min | Area (formaldehyde, GC) ([1]; 180 min): 0 mAU * min | Area (formaldehyde, GC) ([1]; Initial): 0.305 mAU * min | Grade (human skin; content 0.1%): I (Degree of irritation 0-0.1: Grade I (unstimulated)) | Test result (number of subject) (+) (human skin; content 0.1%): 0 | Test result (number of subject) (−) (human skin; content 0.1%): 20 | Test result (number of subject) (++) (human skin; content 0.1%): 0 | Test result (number of subject) (±) (human skin; content 0.1%): 0 | Degree of irritation (human skin; content 0.1%): 0 | Grade (human skin; content 0.5%): I (Degree of irritation 0-0.1: Grade I (unstimulated)) | Test result (number of subject) (+) (human skin; content 0.5%): 0 | Test result (number of subject) (−) (human skin; content 0.5%): 20 | Test result (number of subject) (++) (human skin; content 0.5%): 0 | Test result (number of subject) (±) (human skin; content 0.5%): 0 | Degree of irritation (human skin; content 0.5%): 0 | Grade (human skin; content 1.0%): I (Degree of irritation 0-0.1: Grade I (unstimulated)) | Test result (number of subject) (+) (human skin; content 1.0%): 0 | Test result (number of subject) (−) (human skin; content 1.0%): 19 | Test result (number of subject) (++) (human skin; content 1.0%): 0 | Test result (number of subject) (±) (human skin; content 1.0%): 1 | Degree of irritation (human skin; content 1.0%): 0.05
